Test results from PMC9145144, “Virtual Screening and Hit Selection of Natural Compounds as Acetylcholinesterase Inhibitors” (Molecules, 2022).
In brackets after ≈: the same amount, converted by molar mass. Several values for one entry are separate records, joined by “and”; a condition that tells them apart may be missing. Equal entries are not always repeated. Entries after “also recorded” stand apart in the source; their conditions may differ. Where two headings read alike, the source gives them in different places.

What was measured:
[1] = target: acetylcholinesterase from Electrophorus electricus (Electrophorus electricus, UniProt O42275); test: biochemical; format: biochemical; details: for IC50: triplicate, means ± SD, na = not active
[2] = ABTS radical scavenging activity; details: for antioxidant activity (in words): ABTS radical scavenging; for ABTS (%) radical scavenging activity: absorbance at 734 nm after 7 min, triplicate, means ± SD, BHT 1 mM in MeOH, na = not active
Procedure: […] (ABTS), potassium persulphate, and butylhydroxy toluol (BHT) were purchased from Sigma-Aldrich. For ABTS assay, the procedure followed the method of Grochowski et al. with some modifications. The stock solutions included 7 mM ABTS solution and 2.4 mM potassium persulphate solution. The working solution was then prepared by mixing the two stock solutions in equal quantities and allowing them to react for 14 h at room temperature in the dark. […] A fresh ABTS solution was prepared for each assay. […] of each com-pound (125 μL) was allowed to react with 1850 μL of the ABTS solution, and the absorbance was taken at 734 nm after 7 min. The control contains 125 μL methanol and 1850 μL of the ABTS solution. All determinations were performed in triplicate (n = 3). The results were expressed as % ABTS activity, using the following equation: % ABTS radical scavenging activity = ((Acontrol − Asample)/Acontrol) × 100, where Acontrol is the absorbance of the control, while Asample is the absorbance of the sample. Butylhydroxytoluene (BHT) (1 mM in MeOH) was used as a positive control.

AChE = details: cited from earlier work
BChE = details: cited from earlier work
[3] = parameters: method as in doi:10.1016/j.phytol.2015.03.012; details: cited from earlier work
NMDA receptor = NMDA receptor antagonists; cited from earlier work
[4] = Ellman's method, read-out: IC50

acetylcholinesterase from Electrophorus electricus, sequence (O42275 24-633): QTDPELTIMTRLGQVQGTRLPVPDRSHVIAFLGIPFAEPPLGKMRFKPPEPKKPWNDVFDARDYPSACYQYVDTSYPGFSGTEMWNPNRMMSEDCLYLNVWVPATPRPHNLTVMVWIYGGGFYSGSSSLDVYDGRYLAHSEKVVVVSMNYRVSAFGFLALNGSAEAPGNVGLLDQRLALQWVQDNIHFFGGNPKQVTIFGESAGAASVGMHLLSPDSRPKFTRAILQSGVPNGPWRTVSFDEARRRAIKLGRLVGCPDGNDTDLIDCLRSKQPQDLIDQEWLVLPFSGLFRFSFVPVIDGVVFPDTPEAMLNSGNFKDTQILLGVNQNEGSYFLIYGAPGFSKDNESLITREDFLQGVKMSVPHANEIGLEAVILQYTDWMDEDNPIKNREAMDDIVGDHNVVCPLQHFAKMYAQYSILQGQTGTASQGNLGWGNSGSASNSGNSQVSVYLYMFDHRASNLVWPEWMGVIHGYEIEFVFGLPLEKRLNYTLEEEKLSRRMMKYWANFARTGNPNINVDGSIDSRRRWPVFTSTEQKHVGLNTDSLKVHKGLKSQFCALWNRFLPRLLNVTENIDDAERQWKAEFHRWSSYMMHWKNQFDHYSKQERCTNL

Compound | AChE inhibitory activity (in words) ([1]; Ellman's method) | ABTS (%) radical scavenging activity [2] | IC50 [1, 4] | other results
CC(=O)Nc1ccc(N[C@@H]2OC(=O)c3c2c2ccccc2n3C)cc1 [Compound 16, (R)-N-(4-((4-methyl-3-oxo-3,4-dihydro-1H-furo [3,4-b]indol-1-yl)amino)phenyl)acetamide] | no AChE activity | 95.82% and 95.82 ± 0.21% |  | antioxidant activity (in words) [2]: higher than that of the positive control
O=c1cccc2n1C[C@@H]1CNC[C@H]2C1 [Cytisine] |  |  |  | inhibition of AChE (in words) (AChE): does not inhibit; inhibition of BChE (in words) (BChE): does not inhibit
O=C(Cn1ccc2ccc(F)cc21)NC[C@@H]1CCCN2CCCC[C@H]12 [Compound 9, N-{[(1S,9aR)-octahydro-1H-quinolizin-1-yl]methyl}-2-(6-fluoro-1H-indol-1-yl)acetamide] | micro- to low millimolar range | 6.43% and 6.43 ± 0.85% | 1000 to 2000 µM and 1800 µM | 
O=C(/C=C/c1ccccc1)N1C[C@@H]2C[C@H](C1)c1cccc(=O)n1C2 [Compound 22, (1S,9R)-11-[(2E)-3-phenylprop-2-enoyl]-7,11-diazatricyc lotrideca-2,4-dien-6-one] | micromolar range; also recorded: micro- to low millimolar range |  |  | IC50 ([1]; IC50, Ellman's method): 390 ± 160 µM
O=C1O[C@H]([C@@H](O)CO)C(O)=C1O [ascorbic acid] |  |  |  | IC50 scavenging activity in the ABTS model [3]: 105.90 µg/mL (≈ 601 µM)
C=CCN1C(=O)C2(NCCc3c2[nH]c2ccc(C)cc32)c2ccccc21 (centres unmarked) [Compound 29, 6′-methyl-1-(prop-2-en-1-yl)-1,2,2′,3′,4′,9′-hexahydrospiro[indole-3,1′-pyrido [3,4-b]indol]-2-one] | micro- to low millimolar range | 70.55% and 80.94% and 80.94 ± 0.94% | > 5000 µM and 5700 µM | antioxidant activity (in words) [2]: high antioxidant activity
O=C1C2CCCN2C(=O)c2ccccc2N1CCc1ccccc1 (centres unmarked) [Compound 17] |  |  | > 10000 µM | 
Ibogaine |  |  |  | Ki (NMDA receptor): 1.1 µM
CC[C@H]1C[C@@H]2CN3CCc4c([nH]c5ccccc45)[C@](C(=O)OC)(C2)[C@H]13 [coronaridine] |  |  |  | Ki (NMDA receptor): 6.2 µM
Cc1cc(C(C)(C)C)c(O)c(C(C)(C)C)c1 [BHT, butylhydroxytoluene, reference compound] |  | 92.38% and 92.38 ± 0.21% |  | 
Cc1ccc(NC(=O)C[C@H]2NCCc3c([nH]c4ccccc34)C2=O)cc1 [Compound 21, N-(4-methylphenyl)-2-{5-oxo-1H,2H,3H,4H,5H,6H-azepino [4,5-b]indol-4-yl} acetamide] | micro- to low millimolar range | 34.68% and 34.68 ± 1.27% | 1000 to 2000 µM and 1200 µM | 
CC1CCc2c([nH]c3ccccc23)C2(N1)C(=O)Nc1ccccc12 (centres unmarked) [Compound 28, 3-methyl-1′,2′,3,4,5,10-hexahydro-2H-spiro[azepino [3,4-b]indole-1,3′-indol]-2′-one] | micromolar range; also recorded: micro- to low millimolar range | 80.94% and 70.55 ± 0.85% | 620 ± 140 µM | antioxidant activity (in words) [2]: high antioxidant activity
